Columns and labels:
iPSC-CMs [1] = assay: Pharmacological stimulation by caffeine in iPSC-CMs imaged using NIR-GECO1 or NIR-GECO2; assay type: cell-based, human; details: 10 mM caffeine
Protocol: (§1) Representative time courses of Ca^2+ influx influenced by pharmacological stimulations of caffeine (10 mM). Spontaneous calcium oscillations were also able to be observed before applications of caffeine.
(§2) With reference to FIG. 8, NIR-GECO1 expressed in HL-1 (A) and iPSC-CMs (B), and NIR-GECO2 expressed in iPSC-CMs (C) were tested for pharmacological stimulation.
Human iPSC-derived cardiomyocytes (Human iPSC Cardiomyocytes[…]|ax2505) were purchased from Axol Bioscience. The cells were plated in two wells of a 6-well plate and cultured for eight days in Axol's Cardiomyocyte Maintenance Medium to 80-90% confluency. Cells then were re-plated on Fibronectin/Gelatin (0.5%/0.1%) coated glass bottom dishes for final observation with Tyrode's buffer. […]
(§3) An inverted microscope (D1, Zeiss) equipped with a 63× objective lens (NA 1.4, Zeiss) and a multiwavelength LED light source (pE-4000, CoolLED) was used. […] The filter set (T685lpxr dichroic mirror, and ET720/60 emission filter) was used to stimulate ChR2 and to acquire fluorescence imaging of NIR-GECO1. […] Fluorescence signals were recorded by a CMOS camera (ORCA-Flash4.0LT, HAMAMATSU) and controlled by a HC Image software.

HL-1 cells = assay: Pharmacological stimulation by caffeine in HL-1 cells imaged using NIR-GECO1; assay type: cell-based, mouse; details: 10 mM caffeine
Protocol: as §1
NIR-GECO1 and NIR-GECO2 were then tested for its performance in cardiovascular research. In one aspect of the present invention, a cell culture of stable immortalized cell lines, known as the HL-1 cell line, derived from mouse atrial cardiomyocytes is used as a model.
as §2
To culture the HL-1 cell line, flasks were pre-coated with gelatin/fibronectin at 37° C. overnight. […]
as §3

[2] = tested on: voltage-gated L-type calcium channels; assay: L-type calcium channel inhibitors applied to iPSC-CMs, optically paced Ca^2+ transients imaged using K-GECO1 with ChR2; assay type: cell-based, human; details: 1 μM; 470-nm pulses of 40 ms at 0.3 Hz
Source text: (A) A representative time course of spontaneous Ca^2+ oscillations in iPSC-CMs as imaged using K-GECO1. (B) Photoactivation of R-GECO1 and (C) K-GECO1 in iPSC-CMs. Cells with and without spontaneous activities are shown in trace (i) and (ii), respectively. (D) Combined use of K-GECO1 and channelrhodopsin-2 (ChR2) in iPSC-CMs for all-optical control and observation of Ca^2+ transients. Illumination with 470-nm light at a pulse duration of 150 ms for optical control is indicated by arrowheads. (E) Small molecular inhibitors of the voltage-gated L-type calcium channels were applied to iPSC-CMs. iPSC-CMs were plated out at low density and exposed to clinically relevant doses of 100 nM and 1 μM for nifedipine and verapamil, respectively. Traces were obtained with optical stimulation by 470-nm light at a pulse duration of 40 ms at 0.3 Hz. […]
as §3, with “set (Q565lp” for “set (T685lpxr”, “and HQ620/60” for “and ET720/60”, “of K-GECO1 or R-GECO1.” for “of NIR-GECO1.”, “recorded using” for “recorded by”, “HAMAMATSU)” for “HAMAMATSU) and”

iPSC-CMs [3] = assay: Blue-light photoactivation testing of GECIs expressed in iPSC-CMs; assay type: cell-based, human; details: 0.19 W/cm^2 of 470-nm LED light
Source text: (A) A representative time course of spontaneous Ca^2+ oscillations in iPSC-CMs as imaged using K-GECO1. (B) Photoactivation of R-GECO1 and (C) K-GECO1 in iPSC-CMs. Cells with and without spontaneous activities are shown in trace (i) and (ii), respectively. (D) Combined use of K-GECO1 and channelrhodopsin-2 (ChR2) in iPSC-CMs for all-optical control and observation of Ca^2+ transients. Illumination with 470-nm light at a pulse duration of 150 ms for optical control is indicated by arrowheads. (E) Small molecular inhibitors of the voltage-gated L-type calcium channels were applied to iPSC-CMs. iPSC-CMs were plated out at low density and exposed to clinically relevant doses of 100 nM and 1 μM for nifedipine and verapamil, respectively. Traces were obtained with optical stimulation by 470-nm light at a pulse duration of 40 ms at 0.3 Hz.
FIG. 7. Examination of photoactivation effects of NIR-GECO1 and NIR-GECO2 expressed in iPSC-CMs. […]
as §3, with “set (Q565lp” for “set (T685lpxr”, “and HQ620/60” for “and ET720/60”, “of K-GECO1 or R-GECO1.” for “of NIR-GECO1.”, “recorded using” for “recorded by”, “HAMAMATSU)” for “HAMAMATSU) and”, “software. […]” for “software.”

[4] = In vitro fluorescence characterization of purified NIR-GECO1; assay type: physicochemical; details: inverse response indicator
Source text: (§4) NIR-GECO1 is a near infrared indicator and is engineered from a naturally-monomeric infrared fluorescent proteins (mIFP). NIR-GECO1 has absorbance and emission peaks at 678 and 704 nm, respectively, and undergoes a 90% decrease in fluorescence intensity upon binding Ca^2+, serving as an inverse response indicator contrast to K-GECO1, as shown in FIG. 2B.
To purify NIR-GECO variants for in vitro characterization, the gene encoding variants of interest with a poly-histidine tag on the C terminus, was expressed from the pBAD vector. Bacteria were lysed with a cell disruptor (Constant Systems Ltd) and then centrifuged at 15,000 g for 30 min, and proteins were purified by Ni-NTA affinity chromatography (Agarose Bead Technologies). […]
The extinction coefficients were determined by comparing the absorbance value at 678 nm to the absorbance value at the 391 nm and assuming an extinction coefficient of 39,900 M^− cm^− at 391 nm. […] The concentration of NIR-GECO variants (Ca^2+-free), NIR-GECO variants (Ca^2+-saturated) and mIFP was adjusted to have absorbance of 0.2-0.6 at 650 nm. A series of dilutions, with absorbance ranging from 0.01 to 0.05, were prepared, and integrated emission intensity versus absorbance was plotted. Quantum yields were determined from the slopes (S) of each line using the equation Φprotein=Φstandard*(Sprotein/Sstandard).

[5] = Ca^2+ titration of purified NIR-GECO variants (EGTA-buffered Ca^2+ solutions); assay type: binding; details: Ca^2+ titration of purified protein, 25° C.; read-out: apparent Kd
Source text: as §4
To purify NIR-GECO variants for in vitro characterization, the gene encoding variants of interest with a poly-histidine tag on the C terminus, was expressed from the pBAD vector. Bacteria were lysed with a cell disruptor (Constant Systems Ltd) and then centrifuged at 15,000 g for 30 min, and proteins were purified by Ni-NTA affinity chromatography (Agarose Bead Technologies). The buffer was typically exchanged to 10 mM MOPS, 100 mM KCl (pH 7.2) with centrifugal concentrators (GE Healthcare Life Sciences).
Ca^2+ titrations were carried out using EGTA-buffered Ca^2+ solutions (Calcium Calibration Buffer Kit no. 1, Life Technologies). We prepared buffers by mixing a CaEGTA buffer (30 mM MOPS, 100 mM KCl, 10 mM EGTA, 10 mM CaCl2) and an EGTA buffer (30 mM MOPS, 100 mM KCl, 10 mM EGTA) to give free Ca^2+ concentrations ranging from 0 to 39 μM at 25° C. Fluorescence intensities were plotted against Ca^2+ concentrations and fitted by a sigmoidal binding function to determine the Hill coefficient and Kd.

Molecule: Cn1c(=O)c2c(ncn2C)n(C)c1=O [caffeine]
- fluorescence intensity change (inverse indicator: increase in cytosolic Ca^2+ concentration) (iPSC-CMs [1]): significant decreases in fluorescence intensities
- fluorescence intensity change (inverse indicator: increase in cytosolic Ca^2+ concentration) (HL-1 cells): significant decreases in fluorescence intensities

Molecule: COc1ccc(CCN(C)CCCC(C#N)(c2ccc(OC)c(OC)c2)C(C)C)cc1OC (centres unmarked) [verapamil]
- effect on triggered intensity change as imaged using K-GECO1 [2]: suppress the triggered intensity change

Molecule: NIR-GECO1: near infrared genetically encoded Ca^2+ indicator engineered from monomeric infrared fluorescent protein mIFP (SEQ ID NO. 6)
- photoactivation: changes in fluorescence intensity under illumination (iPSC-CMs [3]; pulse duration 40 ms): no significant changes in fluorescence intensity
- decrease in fluorescence intensity upon binding Ca^2+ [4]: 90%
- Kd [5]: 215 nM

Molecule: NIR-GECO2: near infrared Ca^2+ indicator sharing 99% sequence identity with NIR-GECO1 (SEQ ID NO. 7)
- photoactivation: changes in fluorescence intensity under illumination (iPSC-CMs [3]; pulse duration 100 ms): no significant changes in fluorescence intensity
- Kd [5]: 480 nM

From patent US12601016B2, “Genetically encoded fluorescent indicators under optogenetic control and uses thereof” (LUMISTAR BIOTECHNOLOGY, INC., priority 2018, dated 2026)
